Measurements as given in US7601745B2, “Heterocyclic NF-kB inhibitors” (4SC AG, priority 2004, dated 2009).

These compounds were tested on A549-NF-κB-SEAP reporter cells (assay: Inhibition of NF-κB-induced inflammation ([…] NINA Instant Assay, SEAP reporter)). Details: compounds of formula (I); TNF-α stimulated reporter cells; test concentration not given.
Format: cell-based
Description: For the determination of anti-inflammatory activity of the compounds the […]® NINA Instant Assay from Cell Culture Service GmBH was used. This assay is based on recombinant A549-NF-κB-SEAP reporter cells preseeded in 96-well flat bottom plates. As the transfected reportergen for SEAP (secreted embryonic alkaline phosphatase) is under transcriptional control of a NF-κB-responsive element, the expression of this reporter is activated upon stimulation with TNF-α. SEAP secretion into the culture supernatant can be detected by the chemiluminescent substrate CSPD®. Test compounds that inhibit the NF-κB activation show reduced SEAP activity and reduced luminescent readout.
Following 18 h of reactivation at 37° C., 5% CO2 and 90% relative humidity, the cells were incubated with 0.01 up to 100 μM of test compound for 4.5 h before stimulation with 2 ng/ml TNF-α. After stimulation with TNF-α for 22 h endogenous phosphatases were inactivated and CSPD® substrate was supplied for 40 min. SEAP activity then was quantified by measuring luminescence as relative light units (RLU) using a Tecan Ultra reader. Each data point was recorded in quadruplicates and EC50 values were calculated via fitting function and the Microsoft Excel Solver.

| Structure (SMILES) | Biological activity (NF-κB inflammation assay, inhibition) |
| --- | --- |
| COc1nc(OC)nc(N2CCN(C(=O)c3csc(C4CCN(Cc5ccc(Br)cc5)CC4)n3)CC2)n1 [compound 121] | + (“+” stands for 50-80% inhibition) |
| O=C(c1csc(C2CCN(c3ccccn3)CC2)n1)N1CCN(c2cccc(C(F)(F)F)c2)CC1 [compound 123] | ++ (“++” means 80-90%) |
| CSc1nccc(N2CCN(C(=O)c3csc(C4CCN(C(=O)c5ccccc5OC(F)(F)F)CC4)n3)CC2)n1 [compound 124] | + (“+” stands for 50-80% inhibition) |
| COc1nc(OC)nc(N2CCN(C(=O)c3csc(C4CCN(C(=O)Cc5ccc(F)cc5)CC4)n3)CC2)n1 [compound 126] | + (“+” stands for 50-80% inhibition) |
| COc1nc(OC)nc(N2CCN(C(=O)c3csc(C4CCN(C(=O)c5ccccc5OC(F)(F)F)CC4)n3)CC2)n1 [compound 127] | + (“+” stands for 50-80% inhibition) |
| O=C(c1csc(C2CCN(C(=O)c3ccccc3OC(F)(F)F)CC2)n1)N1CCN(c2ncnc3nc[nH]c23)CC1 [compound 129] | + (“+” stands for 50-80% inhibition) |
| COc1cc(N2CCN(C(=O)c3csc(C4CCN(C(=O)c5ccccc5OC(F)(F)F)CC4)n3)CC2)nc(OC)n1 [compound 130] | + (“+” stands for 50-80% inhibition) |
| CC(c1cc2ccccc2[nH]1)N(C)C(=O)c1csc(C2CCN(C(=O)c3ccccc3OC(F)(F)F)CC2)n1 (centres unmarked) [compound 145] | + (“+” stands for 50-80% inhibition) |
| CN(C(=O)c1csc(C2CCN(C(=O)c3ccccc3OC(F)(F)F)CC2)n1)C(CN1CCOCC1)c1ccccc1 (centres unmarked) [compound 147] | + (“+” stands for 50-80% inhibition) |
| O=C(c1csc(C2CCN(C(=O)c3ccccc3OC(F)(F)F)CC2)n1)N(CCO)Cc1ccccc1 [compound 148] | ++ (“++” means 80-90%) |
| O=C(c1csc(C2CCN(C(=O)c3ccccc3OC(F)(F)F)CC2)n1)N(CCc1ccccc1)Cc1ccccc1 [compound 149] | + (“+” stands for 50-80% inhibition) |
| O=C(c1csc(C2CCN(C(=O)c3ccccc3OC(F)(F)F)CC2)n1)N1CCN(c2cccc(Cl)c2)CC1 [compound 151] | + (“+” stands for 50-80% inhibition) |
| COc1nc(OC)nc(N2CCN(C(=O)c3csc(C4CCNCC4)n3)CC2)n1 [compound 152] | ++ (“++” means 80-90%) |
| COc1ccc(N2CCC(c3nc(C(=O)N4CCN(c5cccc(C(F)(F)F)c5)CC4)cs3)CC2)c(OC)c1 [compound 153] | + (“+” stands for 50-80% inhibition) |
| O=C(c1csc(C2CCN(c3ccc(OC(F)(F)F)cc3)CC2)n1)N1CCN(c2cccc(C(F)(F)F)c2)CC1 [compound 154] | + (“+” stands for 50-80% inhibition) |
| O=C(c1csc(C2CCN(c3ccc(C(F)(F)F)cc3)CC2)n1)N1CCN(c2cccc(C(F)(F)F)c2)CC1 [compound 155] | + (“+” stands for 50-80% inhibition) |
| O=C(c1csc(C2CCN(c3ccc4c(c3)OCO4)CC2)n1)N1CCN(c2cccc(C(F)(F)F)c2)CC1 [compound 156] | + (“+” stands for 50-80% inhibition) |
| O=C(c1csc(C2CCN(c3ccc4c(c3)OCCO4)CC2)n1)N1CCN(c2cccc(C(F)(F)F)c2)CC1 [compound 157] | + (“+” stands for 50-80% inhibition) |
| COc1ccccc1N1CCC(c2nc(C(=O)N3CCN(c4cccc(C(F)(F)F)c4)CC3)cs2)CC1 [compound 158] | + (“+” stands for 50-80% inhibition) |
| COc1ccc(N2CCC(c3nc(C(=O)N4CCN(c5cccc(C(F)(F)F)c5)CC4)cs3)CC2)cc1OC [compound 159] | + (“+” stands for 50-80% inhibition) |
| COc1cc(N2CCC(c3nc(C(=O)N4CCN(c5cccc(C(F)(F)F)c5)CC4)cs3)CC2)nc(OC)n1 [compound 164] | ++ (“++” means 80-90%) |
| O=C(c1csc(C2CCN(Cc3ccccc3Br)CC2)n1)N1CCN(c2cccc(C(F)(F)F)c2)CC1 [compound 165] | + (“+” stands for 50-80% inhibition) |
| N#Cc1ccc(CN2CCC(c3nc(C(=O)N4CCN(c5cccc(C(F)(F)F)c5)CC4)cs3)CC2)cc1 [compound 166] | + (“+” stands for 50-80% inhibition) |
| O=C(c1csc(C2CCN(Cc3ccc(-c4ccccc4)cc3)CC2)n1)N1CCN(c2cccc(C(F)(F)F)c2)CC1 [compound 167] | + (“+” stands for 50-80% inhibition) |
| O=C(c1csc(C2CCN(Cc3c(F)cccc3F)CC2)n1)N1CCN(c2cccc(C(F)(F)F)c2)CC1 [compound 168] | + (“+” stands for 50-80% inhibition) |
| O=C(c1csc(C2CCN(Cc3ccc(C(F)(F)F)cc3)CC2)n1)N1CCN(c2cccc(C(F)(F)F)c2)CC1 [compound 169] | + (“+” stands for 50-80% inhibition) |
| O=C(c1csc(C2CCN(Cc3ccc(F)cc3)CC2)n1)N1CCN(c2cccc(C(F)(F)F)c2)CC1 [compound 170] | + (“+” stands for 50-80% inhibition) |

Same assay, conditions: compounds of formula (Ia); TNF-α stimulated reporter cells; test concentration not given

| Structure (SMILES) | Biological activity (NF-κB inflammation assay, inhibition) |
| --- | --- |
| O=C(Nc1ccccc1)N1CCC(c2nc(C(=O)N3CCN(c4cccc(C(F)(F)F)c4)CC3)cs2)CC1 [compound 134] | + (“+” stands for 50-80% inhibition) |
| O=C(Nc1cccc(F)c1)N1CCC(c2nc(C(=O)N3CCN(c4cccc(C(F)(F)F)c4)CC3)cs2)CC1 [compound 142] | ++ (“++” means 80-90%) |
| O=C(Nc1ccc(F)cc1)N1CCC(c2nc(C(=O)N3CCN(c4cccc(C(F)(F)F)c4)CC3)cs2)CC1 [compound 143] | + (“+” stands for 50-80% inhibition) |

Same assay, conditions: compounds of formula (Ib); TNF-α stimulated reporter cells; test concentration not given

| Structure (SMILES) | Biological activity (NF-κB inflammation assay, inhibition) |
| --- | --- |
| Cc1sc(C2CCN(C(=O)c3ccccc3OC(F)(F)F)CC2)nc1CC(=O)N1CCN(c2cccc(Cl)c2)CC1 [compound 128] | +++ (“+++” stands for 90-100% inhibition) |

Same assay, conditions: compounds of formula (Ic); TNF-α stimulated reporter cells; test concentration not given

| Structure (SMILES) | Biological activity (NF-κB inflammation assay, inhibition) |
| --- | --- |
| CNc1ccc(Cl)cc1C1c2ccccc2CCN1C(=O)c1csc(C2CCN(C(=O)c3ccccc3OC(F)(F)F)CC2)n1 (centres unmarked) [compound 150] | ++ (“++” means 80-90%) |
| O=C(Cc1ccc(F)cc1)N1CCC(c2nc(C(=O)N3CCc4cc(O)c(O)cc4C3)cs2)CC1 [compound 160] | + (“+” stands for 50-80% inhibition) |
| COc1cc2c(cc1OC)CN(C(=O)c1csc(C3CCN(C(=O)Cc4ccc(F)cc4)CC3)n1)CC2 [compound 161] | + (“+” stands for 50-80% inhibition) |
| O=C(Cc1ccc(F)cc1)N1CCC(c2nc(C(=O)N3CCc4ccccc4C3)cs2)CC1 [compound 163] | + (“+” stands for 50-80% inhibition) |
